Assay results reported in patent publication US10206902B2, “Mono- or di-substituted indoles as dengue viral replication inhibitors” (priority 2014, dated 2019).

How the values were obtained:
Format in all cases: cell-based
[1] = system: DENV-2 strain 16681; assay: Tetravalent RT-qPCR assay Protocol A, serotype 2; conditions: Dengue virus, DENV2, 72 h, RT-qPCR serotype 2 16681, Vero cells, day 3
Procedure: (§1) The antiviral activity of the compounds of the invention was tested against DENV-1 strain TC974#666 (NCPV), DENV-2 strain 16681, DENV-3 strain H87 (NCPV) and DENV-4 strains H241 (NCPV) and EDEN (SG/06K2270DK1/2005; GenBank accession number QG398256) in a RT-qPCR assay. Therefore, Vero cells were infected with either DENV-1, or -2, or -3, or -4 in the presence or absence of test compounds. At day 3 post-infection, the cells were lysed and cell lysates were used to prepare cDNA of both a viral target (the 3′UTR of DENV; table 2) and a cellular reference gene (β-actin, table 2). Subsequently, a duplex real time PCR was performed on a Lightcycler480 instrument. The generated Cp value is inversely proportional to the amount of RNA expression of these targets. Inhibition of DENV replication by a test compound result in a shift of Cp's for the 3′UTR gene. On the other hand, if a test compound is toxic to the cells, a similar effect on β-actin expression will be observed. The comparative ΔΔCp method is used to calculate EC50, which is based on the relative gene expression of the target gene (3′UTR) normalized with the cellular housekeeping gene (β-actin). In addition, CC50 values were determined based on the Cp values acquired for the housekeeping gene β-actin.
(§2) The culture medium consisted of minimal essential medium supplemented with 2% of heat-inactivated fetal calf serum, 0.04% gentamycin (50 mg/mL) and 2 mM of L-glutamine. Vero cells, obtained from ECACC, were suspended in culture medium and 75 μL/well was added in 96-well plates (10000 cells/well), which already contain the antiviral compounds. Typically, these plates contain a 4-fold serial dilution of 9 dilution steps of the test compound at 200 times the final concentration in 100% DMSO (500 nL; final concentration range: 25 μM-0.00038 μM). In addition, each plate contains wells which are assigned as virus controls (containing cells and virus in the absence of compound) and cell controls (containing cells in the absence of virus and compound). Once the cells were added in the plates, the plates were incubated in a fully humidified incubator (37° C., 5% CO2) until the next day. Then, DENV-1 strain TC974#666, DENV-2 strain 16681, DENV-3 strain H87 or DENV-4 strains H241 or EDEN were added. […] In parallel, 25 μL of culture medium was added to the cell controls. Next, the plates were incubated for 3 days in a fully humidified incubator (37° C., 5% CO2). After 3 days, the supernatant was removed from the wells and the cells were washed twice with ice-cold PBS (˜100 μL). The cell pellets within the 96-well plates were stored at −80° C. for at least 1 day. Next, RNA was extracted using the Cells-to-CT™ lysis kit, according to the manufacture's guideline (Applied Biosystems). The cell lysates can be stored at −80° C. or immediately used in the reverse transcription step. In preparation of the reverse transcription step, mix A (table 3A) was prepared and 7.57 μL/well was dispensed in a 96-well plate. After addition of 5 μL of the cell lysates, a five minute denaturation step at 75° C. was performed (table 3B). Afterwards, 7.43 μL of mix B was added (table 3C) and the reverse transcription step was initiated (table 3D) to generate cDNA.
(§3) Finally, a RT-qPCR mix was prepared, mix C (table 4A), dispensed in 96-well LightCycler qPCR plates to which 3 μL of cDNA was added and the qPCR was performed according to the conditions in table 4B on a LightCycler 480. Using the LightCycler software and an in-house LIMS system, dose response curves for each compound were calculated and the half maximal effective concentration (EC50) and the half maximal cytotoxic concentration (CO50) were determined (Tables 6-9).

[2] = system: DENV-4 strain EDEN; assay: Tetravalent RT-qPCR assay Protocol A, serotype 4 EDEN; conditions: Dengue virus, DENV4, 72 h, RT-qPCR serotype 4 EDEN, Vero cells, day 3
Procedure: as §1, §2, §3

[3] = system: DENV-3 strain H87 prototype; assay: Tetravalent RT-qPCR assay Protocol B, serotype 3; conditions: Dengue virus, DENV3, 168 h, RT-qPCR serotype 3 H87, Vero cells, 7 days
Procedure: Vero cells (4×10^4) were seeded in 96-well plates. […] Following a 2 hour incubation period, the cell monolayer was washed 3 times with assay medium to remove residual, non-adsorbed virus and cultures were further incubated for either 4 days (DENV-2 NGC-Tongalike) or 7 days (DENV-1 Djibouti strain D1/H/IMTSSA/98/606, DENV-3 strain H87 prototype, DENV-4 strain H241′) in the presence of the inhibitor. Supernatant was harvested and viral RNA load was determined by real-time quantitative RT-PCR. The 50% effective concentration (EC50), which is defined as the compound concentration that is required to inhibit viral RNA replication by 50%, was determined using logarithmic interpolation (Tables 7 and 8). RNA was isolated from 100 μL supernatant with the NucleoSpin 96 Virus kit (Filter Service, Duren, Germany) as described by the manufacturer. The sequences of the TaqMan primers (DENV-For, DENV-Rev; Table 5) and TaqMan probes (DENV-Probe Table 5) were selected from non-structural gene 3 (NS3) or NS5, of the respective flaviviruses using Primer Express software (version 2.0; Applied Biosystems, Lennik, Belgium). The TaqMan probe was fluorescently labelled with 6-carboxyfluorescein (FAM) at the 5′ end as the reporter dye, and with minor groove binder (MGB) at the 3′ end as the quencher (Table 5). One-step, quantitative RT-PCR was performed in a total volume of 25 μL, containing 13.9375 μL H2O, 6.25 μL master mix (Eurogentec, Seraing, Belgium), 0.375 μL forward primer, 0.375 μL reverse primer, 1 μL probe, 0.0625 μL reverse transcriptase (Eurogentec) and 3 μL sample. RT-PCR was performed using the ABI 7500 Fast Real-Time PCR System (Applied Biosystems, Branchburg, N.J., USA) using the following conditions: 30 min at 48° C. and 10 min at 95° C., followed by 40 cycles of 15 s at 95° C. and 1 min at 60° C. The data was analyzed using the ABI PRISM 7500 SDS software (version 1.3.1; Applied Biosystems). For absolute quantification, standard curves were generated using 10-fold dilutions of template preparations of known concentrations.

SMILES	EC50 [1] [nM]	EC50 [2] [nM]	EC50 [3] [nM]
COc1cc(NC(C(=O)c2c[nH]c3cc(F)ccc23)c2ccc(F)cc2OC)cc(OCCO)c1 (single isomer, unassigned) [Compound 1A, 1-(6-fluoro-1H-indol-3-yl)-2-(4-fluoro-2-methoxyphenyl)-2-((3-(2-hydroxyethoxy)-5-methoxyphenyl)amino)ethanone]	3.2	12	53
COc1cc(NC(C(=O)c2c[nH]c3c(C)c(OC)ccc23)c2ccc(F)cc2OC)cc(OCCO)c1 (single isomer, unassigned) [Compound 11A, 2-(4-fluoro-2-methoxyphenyl)-2-((3-(2-hydroxyethoxy)-5-methoxyphenyl)amino)-1-(6-methoxy-7-methyl-1H-indol-3-yl)ethanone]	0.84	15	40
COc1cc(NC(C(=O)c2c[nH]c3cc(Cl)ccc23)c2ccc(F)cc2OC)cc(OCCO)c1 (single isomer, unassigned) [Compound 4A, 1-(6-chloro-1H-indol-3-yl)-2-(4-fluoro-2-methoxyphenyl)-2-((3-(2-hydroxyethoxy)-5-methoxyphenyl)amino)ethanone]	1.6	16	16
COc1cc(NC(C(=O)c2c[nH]c3c(F)cc(C)cc23)c2ccc(F)cc2OC)cc(OCCO)c1 (single isomer, unassigned) [Compound 12B, 2-(4-fluoro-2-methoxyphenyl)-1-(7-fluoro-5-methyl-1H-indol-3-yl)-2-((3-(2-hydroxyethoxy)-5-methoxyphenyl)amino)ethanone]	8.1	17	77
COc1cc(NC(C(=O)c2c[nH]c3c(C)cc(F)cc23)c2ccc(F)cc2OC)cc(OCCO)c1 (single isomer, unassigned) [Compound 9B, 2-(4-fluoro-2-methoxyphenyl)-1-(5-fluoro-7-methyl-1H-indol-3-yl)-2-((3-(2-hydroxyethoxy)-5-methoxyphenyl)amino)ethanone]	3.2	20	66
COc1cc(NC(C(=O)c2c[nH]c3c(Cl)c(OC)ccc23)c2ccc(F)cc2OC)cc(OCCO)c1 (single isomer, unassigned) [Compound 8A, 1-(7-chloro-6-methoxy-1H-indol-3-yl)-2-(4-fluoro-2-methoxyphenyl)-2-((3-(2-hydroxyethoxy)-5-methoxyphenyl)amino)ethanone]	0.9	21	29
COc1cc(NC(C(=O)c2c[nH]c3cc(OC)c(F)cc23)c2ccc(F)cc2OC)cc(OCCO)c1 (single isomer, unassigned) [Compound 7A, 2-(4-fluoro-2-methoxyphenyl)-1-(5-fluoro-6-methoxy-1H-indol-3-yl)-2-((3-(2-hydroxyethoxy)-5-methoxyphenyl)amino)ethanone]	3.4	23	41
COc1cc(NC(C(=O)c2c[nH]c3cc(F)c(F)cc23)c2ccc(F)cc2OC)cc(OCCO)c1 (single isomer, unassigned) [Compound 10B, 1-(5,6-difluoro-1H-indol-3-yl)-2-(4-fluoro-2-methoxy-phenyl)-2-((3-(2-hydroxyethoxy)-5-methoxyphenyl)amino)ethanone]	3.2	20	< 22
COc1cc(NC(C(=O)c2c[nH]c3cc(OC)c(C)cc23)c2ccc(F)cc2OC)cc(OCCO)c1 (single isomer, unassigned) [Compound 6A, 2-(4-fluoro-2-methoxyphenyl)-2-((3-(2-hydroxyethoxy)-5-methoxyphenyl)amino)-1-(6-methoxy-5-methyl-1H-indol-3-yl)ethanone]	1.7	13	20
COc1cc(NC(C(=O)c2c[nH]c3c(F)c(F)ccc23)c2ccc(F)cc2OC)cc(OCCO)c1 (single isomer, unassigned) [Compound 5B, 1-(6,7-difluoro-1H-indol-3-yl)-2-(4-fluoro-2-methoxyphenyl)-2-((3-(2-hydroxyethoxy)-5-methoxyphenyl)amino)ethanone]	3.6	24	50
COc1cc(NC(C(=O)c2c[nH]c3c(C)c(Cl)ccc23)c2ccc(F)cc2OC)cc(OCCO)c1 (single isomer, unassigned) [Compound 3A, 1-(6-chloro-7-methyl-1H-indol-3-yl)-2-(4-fluoro-2-methoxyphenyl)-2-((3-(2-hydroxyethoxy)-5-methoxyphenyl)amino)ethanone]	0.79	16	32
COc1cc(NC(C(=O)c2c[nH]c3c(C)c(F)ccc23)c2ccc(F)cc2OC)cc(OCCO)c1 (single isomer, unassigned) [Compound 2B, 2-(4-fluoro-2-methoxyphenyl)-1-(6-fluoro-7-methyl-1H-indol-3-yl)-2-((3-(2-hydroxyethoxy)-5-methoxyphenyl)amino)ethanone]	2.3	11	42
